Source: article PMC7822874, “Chemoprotective antimalarials identified through quantitative high-throughput screening of Plasmodium blood and liver stage parasites” (Scientific Reports, 2021)
Read-outs that look alike come from different tables or passages of the source.

Columns and labels:
[1] = test system: P. berghei-ANKA-GFP-LucCON liver stage parasites in HepG2-A16-CD81EGFP cells; assay: P. berghei liver stage Pb-Luc assay, Method 1 (UCSD, 1536-well); format: cell-based, Plasmodium berghei; settings: Plasmodium berghei, 48 h, P. berghei liver stage, average of 2 wells on a 1536 well plate; for activity at 1 µM: 1 µM compound treatment (10 mM stocks); for activity at 3 µM: 3 µM compound treatment (10 mM stocks)
[2] = test system: Plasmodium falciparum Dd2 asexual blood stage parasites; assay: microbe, parasite or virus in culture; design: species or system Plasmodium falciparum Dd2 in human erythrocytes; single determination (one 11-point concentration-response curve); settings: Plasmodium falciparum, DD2, Erythrocyte, 72 h; read-out: AC50
HepG2-A16-CD81EGFP cells = settings: average of 2 wells; for HepG2 1uM growth rep1 / HepG2 1uM growth rep2: HepG2, 1 µM compound treatment (10 mM stocks); for HepG2 1uM growth rep1 / HepG2 3uM growth rep1: replicate 1, normalized; for HepG2 1uM growth rep2 / HepG2 3uM growth rep2: replicate 2, normalized; for HepG2 3uM growth rep1 / HepG2 3uM growth rep2: HepG2, 3 µM compound treatment (10 mM stocks)
[3] = replicate 1, normalized, read-out: PbLuc 1uM growth rep1
[4] = replicate 2, normalized, read-out: PbLuc 1uM growth rep2
[5] = replicate 1, normalized, read-out: PbLuc 3uM growth rep1
[6] = replicate 2, normalized, read-out: PbLuc 3uM growth rep2

| Compound | activity at 1 µM [1, 3] | activity at 1 µM [1, 4] | activity at 3 µM [1, 5] | activity at 3 µM [1, 6] | AC50 [2] | HepG2 1uM growth rep1 (HepG2-A16-CD81EGFP cells) | HepG2 1uM growth rep2 (HepG2-A16-CD81EGFP cells) | HepG2 3uM growth rep1 (HepG2-A16-CD81EGFP cells) | HepG2 3uM growth rep2 (HepG2-A16-CD81EGFP cells) |
| --- | --- | --- | --- | --- | --- | --- | --- | --- | --- |
| Cc1cc(N2CCN(C3CCCC3)CC2)n2c(nc3ccccc32)c1C#N [MLS000039270-01] | 103% | 109% | 75% | 112% | 1.06 µM | 91% | 87% | 89% | 90% |
| Cc1ccc(-c2nn(-c3ccccc3)c3[nH]c(=O)c(CNCc4ccccc4)cc23)cc1 [MLS000067457-01] | 76% | 56% | 38% | 42% | 0.422 µM | 95% | 94% | 91% | 100% |
| COc1ccc(OC)c(-n2c(S)nnc2-c2cccc(O)c2)c1 [MLS000089016-01] | 141% | 98% | 86% | 109% | 4.22 µM | 97% | 93% | 90% | 96% |
| Oc1c(Cl)cc(Cl)cc1CN1CCN(Cc2ccccc2)CC1 [MLS000106505-01] | 108% | 103% | 88% | 103% | 0.668 µM | 105% | 94% | 90% | 94% |
| O=C(CCl)Nc1ccc(Oc2cnc3ccccc3n2)cc1 [MLS000327546-01] | 99% | 119% | 104% | 138% | 3.35 µM | 90% | 86% | 92% | 90% |
| Cc1ccc(Sc2ccc(NC(=O)CCl)cc2)cc1C [MLS000334846-01] | 124% | 83% | 88% | 81% | 9.44 µM | 92% | 91% | 92% | 96% |
| Clc1ccc2c(N/N=C/c3cccc(Br)c3)ccnc2c1 [MLS000336198-01] | 63% | 77% | 45% | 62% | 10.6 µM | 83% | 80% | 87% | 87% |
| CC1CCN(c2ccc(C(=O)NCc3ccco3)cc2[N+](=O)[O-])CC1 [MLS000389854-01] | 63% | 57% | 20% | 28% | 6.68 µM | 91% | 90% | 88% | 94% |
| CCOC(=O)c1sc2nc3c(SCCC#N)cc(C(=O)c4cc(F)ccc4O)cn3c(=O)c2c1C [MLS000393119-01] | 107% | 121% | 76% | 92% | 1.68 µM | 91% | 92% | 89% | 93% |
| CCOc1ccccc1NC(=O)Cn1c(-c2ccc(Cl)cc2)noc1=O [MLS000529487-01] | 100% | 128% | 102% | 133% | 5.96 µM | 101% | 91% | 84% | 90% |
| COc1ccc2[nH]c(C)c(CCN(Cc3cccs3)C(S)=Nc3ccccc3)c2c1 [MLS000529828-01] | 145% | 108% | 101% | 128% | 2.66 µM | 91% | 90% | 85% | 88% |
| Cc1ccccc1C1C(C#N)=C2N=C(N)c3c(sc4c3CCCCC4)N2C2=C1C(=O)CCC2 (stereo not drawn) [MLS000543544-01] | 129% | 99% | 79% | 94% | 2.66 µM | 94% | 95% | 90% | 96% |
